Assay results published in ChEMBL document CHEMBL1201862, “PubChem BioAssay data set” (2004).
Several values for one entry are separate records, joined by “and”; a condition that tells them apart may be missing. Identical values can stand only once. Activity calls are given as the source filed them.

Columns and labels:
[1] = reduction of Shn3 3'UTR firefly luciferase signal, dose response, Schnurri-3 inhibitor project, cell-based, Clone20 osteoblasts, cherry-pick, set 2 (AID 720490); format: functional;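 also: actives lower the luminescence signal as inhibitors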
[2] = HepG2 cell cytotoxicity, dose response, cytotoxicity control for Shn3 inhibitor project, CellTiter-Glo, cherry-picked (AID 624134); format: functional, cell-based
[3] = inhibitors of control Renilla luciferase reporter, dose response, counter-screen for Shn3 3'UTR targeting project, Clone20-Shn3RL cells, dual-Glo, cherry-pick, set 2 (AID 720724); format: functional, cell-based; details: Dual-Go Shn3RL
[4] = Shn3 3'UTR reporter inhibitors, dose response, cell-based, Clone20 osteoblasts, firefly luciferase, cherry-picked (AID 624132); format: functional;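 also: firefly luciferase luminescence from reporter carrying the Shn3 3'UTR in osteoblasts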
[5] = control 3'UTR Renilla luciferase suppression, dose response, counter-screen for Shn3 inhibitor project, cell-based, Clone20-Shn3RL, cherry-picked (AID 624133); format: functional
[6] = target: Cytochrome P450 2D6 (Homo sapiens, UniProt P10635); experiment: qHTS Assay for Inhibitors and Substrates of Cytochrome P450 2D6. [Related pubchem assays: 410 ]; format: ADME; details: read-out: Potency
Sequence of Cytochrome P450 2D6 (P10635 whole entry): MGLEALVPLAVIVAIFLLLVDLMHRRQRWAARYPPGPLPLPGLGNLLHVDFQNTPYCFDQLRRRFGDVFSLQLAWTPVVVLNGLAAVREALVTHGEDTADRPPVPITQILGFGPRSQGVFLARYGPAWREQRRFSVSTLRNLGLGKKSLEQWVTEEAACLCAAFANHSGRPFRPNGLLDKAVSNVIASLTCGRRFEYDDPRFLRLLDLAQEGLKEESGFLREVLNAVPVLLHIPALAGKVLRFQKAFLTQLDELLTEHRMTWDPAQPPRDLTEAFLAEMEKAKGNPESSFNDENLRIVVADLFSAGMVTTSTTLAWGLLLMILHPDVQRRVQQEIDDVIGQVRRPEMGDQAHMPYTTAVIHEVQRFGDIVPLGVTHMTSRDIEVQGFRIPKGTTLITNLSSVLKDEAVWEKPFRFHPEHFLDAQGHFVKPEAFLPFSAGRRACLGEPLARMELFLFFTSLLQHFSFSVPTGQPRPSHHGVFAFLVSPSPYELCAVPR

[7] = target: Cytochrome P450 2C19 (Homo sapiens, UniProt P33261); experiment: qHTS Assay for Inhibitors and Substrates of Cytochrome P450 2C19. [Related pubchem assays: 410 ]; format: ADME; details: read-out: Potency
Sequence of Cytochrome P450 2C19 (P33261 whole entry): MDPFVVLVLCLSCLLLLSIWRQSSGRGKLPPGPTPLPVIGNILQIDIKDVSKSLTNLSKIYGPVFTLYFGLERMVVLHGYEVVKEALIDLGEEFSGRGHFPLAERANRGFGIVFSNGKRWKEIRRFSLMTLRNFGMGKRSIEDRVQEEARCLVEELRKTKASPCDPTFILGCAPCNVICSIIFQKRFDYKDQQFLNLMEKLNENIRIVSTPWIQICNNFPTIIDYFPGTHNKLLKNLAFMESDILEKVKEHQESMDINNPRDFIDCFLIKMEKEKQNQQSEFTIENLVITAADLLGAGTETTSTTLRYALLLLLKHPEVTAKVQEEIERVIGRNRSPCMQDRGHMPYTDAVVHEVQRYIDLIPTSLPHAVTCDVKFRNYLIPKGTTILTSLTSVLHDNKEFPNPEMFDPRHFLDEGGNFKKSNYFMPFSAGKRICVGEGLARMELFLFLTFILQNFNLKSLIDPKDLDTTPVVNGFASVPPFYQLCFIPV

[8] = target: E3 ubiquitin-protein ligase Mdm2 (Homo sapiens, UniProt Q00987); experiment: enhancers of MDM2-luciferase reporter signal, concentration-effect titration, project on inhibitors of MDM2 ubiquitin ligase, cellular assay, luminescent readout, 384-well plate format (AID 1394); format: functional;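 also: MDM2 E3 inhibitors raise luminescence so EC50 is for signal enhancement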
Sequence of E3 ubiquitin-protein ligase Mdm2 (Q00987 whole entry): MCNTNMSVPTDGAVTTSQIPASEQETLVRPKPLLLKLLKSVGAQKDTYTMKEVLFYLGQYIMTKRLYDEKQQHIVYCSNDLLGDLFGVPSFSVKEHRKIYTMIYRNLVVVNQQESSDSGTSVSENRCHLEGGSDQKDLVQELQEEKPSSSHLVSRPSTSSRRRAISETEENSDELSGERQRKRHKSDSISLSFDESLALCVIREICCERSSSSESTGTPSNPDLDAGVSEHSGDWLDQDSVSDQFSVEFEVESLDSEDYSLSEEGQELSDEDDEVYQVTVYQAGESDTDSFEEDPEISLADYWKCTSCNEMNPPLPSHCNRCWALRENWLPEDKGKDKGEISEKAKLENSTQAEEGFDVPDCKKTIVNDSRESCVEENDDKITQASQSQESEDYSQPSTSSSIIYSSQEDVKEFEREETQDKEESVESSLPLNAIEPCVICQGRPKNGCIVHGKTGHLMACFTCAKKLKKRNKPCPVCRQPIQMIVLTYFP

[9] = target: Kallikrein-7 (Homo sapiens, UniProt P49862); experiment: Fluorescence Intensity-based biochemical primary high throughput dose response assay to identify activators of kallikrein-7 (K7) zymogen.
Sequence of Kallikrein-7 (P49862 whole entry): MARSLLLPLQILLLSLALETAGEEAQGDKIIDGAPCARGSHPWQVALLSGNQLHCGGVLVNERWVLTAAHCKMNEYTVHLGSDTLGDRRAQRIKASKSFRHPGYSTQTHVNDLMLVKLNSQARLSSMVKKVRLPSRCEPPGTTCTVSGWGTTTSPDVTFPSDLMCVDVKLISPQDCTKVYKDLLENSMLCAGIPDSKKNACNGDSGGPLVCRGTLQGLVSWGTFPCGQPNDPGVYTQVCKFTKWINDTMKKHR

[10] = target: Genome polyprotein (Hepatitis C virus, UniProt Q2Q167); experiment: HCV core protein dimerization inhibitors, dose response, biochemical, TR-FRET (AID 2159); design: species or system Hepacivirus hominis;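 also: blocks dimerization of HCV core protein measured by TR-FRET between tagged core106 pairs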
Sequence of Genome polyprotein (Q2Q167 whole entry): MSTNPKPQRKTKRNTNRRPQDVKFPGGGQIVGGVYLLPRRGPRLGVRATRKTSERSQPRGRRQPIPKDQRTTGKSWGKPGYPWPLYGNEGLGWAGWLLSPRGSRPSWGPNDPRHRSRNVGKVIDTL

[11] = tested on: Streptococcus sp. 'group A'; experiment: growth inhibition of control SK(-) GAS strain, dose response, counter-screen for streptokinase expression inhibitor project, luminescence, kanamycin, BacTiterGlo, confirmation (AID 1900); format: functional, organism-based
[12] = tested on: Streptococcus; experiment: Group A Streptococcus viability loss, dose response, counter-screen for streptokinase expression inhibitor project, luminescence, BacTiterGlo (AID 1915); format: functional, organism-based;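 also: potency for reduction of bacterial viability or growth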
[13] = target: COUP transcription factor 2 (Homo sapiens, UniProt P24468); experiment: Luminescence-based cell-based high throughput dose response assay to identify inhibitors of COUP-TFII (NR2F2).; format: functional;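 also: HEK293 cells transiently cotransfected with COUP-TFII expression vector and reporter; luciferase reporter luminescence driven by COUP-TFII from the pX2-168 reporter plasmid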
Sequence of COUP transcription factor 2 (P24468 whole entry): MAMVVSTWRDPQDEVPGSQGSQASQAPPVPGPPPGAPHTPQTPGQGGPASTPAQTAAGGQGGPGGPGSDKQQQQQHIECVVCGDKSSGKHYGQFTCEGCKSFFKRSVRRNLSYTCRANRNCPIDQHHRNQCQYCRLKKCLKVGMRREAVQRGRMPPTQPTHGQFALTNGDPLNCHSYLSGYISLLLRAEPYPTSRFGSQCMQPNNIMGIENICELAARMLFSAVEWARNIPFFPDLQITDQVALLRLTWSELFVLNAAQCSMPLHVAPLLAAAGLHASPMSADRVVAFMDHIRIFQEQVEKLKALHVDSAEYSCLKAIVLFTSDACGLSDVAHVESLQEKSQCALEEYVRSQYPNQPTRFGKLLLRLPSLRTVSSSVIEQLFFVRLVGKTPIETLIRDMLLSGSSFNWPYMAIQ

[14] = tested on: INS1; experiment: beta cell apoptosis inhibitors, cytokine rescue, dose response, luminescence, retest (AID 449756); format: functional, cell-based; details: Rattus norvegicus;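 also: cell death triggered by IL-1 beta plus TNF-alpha plus IFN-gamma mixture; protective hits raise ATP signal compared with cytokine alone wells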
[15] = target: T1, Oxysterols receptor LXR-beta (Homo sapiens, UniProt P55055); format: functional, cell-based
T1 sequence (P55055 whole entry): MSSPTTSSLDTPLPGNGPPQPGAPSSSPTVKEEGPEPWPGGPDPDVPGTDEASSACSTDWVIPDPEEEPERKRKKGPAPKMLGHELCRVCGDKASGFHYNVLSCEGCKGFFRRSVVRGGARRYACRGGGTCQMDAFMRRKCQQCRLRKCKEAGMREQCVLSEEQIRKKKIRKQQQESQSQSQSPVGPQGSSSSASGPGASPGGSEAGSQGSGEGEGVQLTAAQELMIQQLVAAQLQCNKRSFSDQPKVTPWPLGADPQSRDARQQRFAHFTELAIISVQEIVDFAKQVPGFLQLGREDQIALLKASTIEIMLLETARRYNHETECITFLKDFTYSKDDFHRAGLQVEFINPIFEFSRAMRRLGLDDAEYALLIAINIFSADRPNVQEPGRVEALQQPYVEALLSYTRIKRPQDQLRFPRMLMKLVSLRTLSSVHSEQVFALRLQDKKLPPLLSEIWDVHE

[16] = target: T2, Long-chain-fatty-acid--AMP ligase FadD28 (Mycobacterium tuberculosis, UniProt P9WQ59); experiment: Fluorescence polarization aasay to screen for inhibitors that compete for the binding of FadD28 to a bisubstrate Measured in Biochemical System Using Plate Reader - 2147-01_Inhibitor_Dose_CherryPick_Activity.; format: functional, Mycobacterium tuberculosis H37Rv
T2 sequence (P9WQ59 whole entry): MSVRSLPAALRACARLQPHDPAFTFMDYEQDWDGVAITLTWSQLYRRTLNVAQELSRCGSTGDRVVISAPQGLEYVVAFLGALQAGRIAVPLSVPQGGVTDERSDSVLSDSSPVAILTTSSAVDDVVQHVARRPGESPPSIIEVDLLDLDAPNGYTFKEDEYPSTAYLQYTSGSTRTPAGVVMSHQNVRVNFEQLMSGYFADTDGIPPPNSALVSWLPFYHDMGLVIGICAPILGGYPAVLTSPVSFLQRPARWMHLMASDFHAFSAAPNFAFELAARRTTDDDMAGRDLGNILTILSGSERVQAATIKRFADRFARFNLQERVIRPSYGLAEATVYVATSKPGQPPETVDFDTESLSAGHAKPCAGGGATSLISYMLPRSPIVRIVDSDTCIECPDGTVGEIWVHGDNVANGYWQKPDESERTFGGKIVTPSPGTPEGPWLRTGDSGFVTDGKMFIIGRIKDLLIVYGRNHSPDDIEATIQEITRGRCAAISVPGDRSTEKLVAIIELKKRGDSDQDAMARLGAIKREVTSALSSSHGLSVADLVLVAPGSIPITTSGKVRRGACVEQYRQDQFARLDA

[17] = target: Bifunctional protein GlmU (Mycobacterium tuberculosis, UniProt P9WMN3); experiment: Inhibitors of Mycobacterial Glucosamine-1-phosphate acetyl transferase (GlmU). Secondary screen.; design: species or system Mycobacterium tuberculosis H37Rv
[18] = target: Disintegrin and metalloproteinase domain-containing protein 17 (Homo sapiens, UniProt P78536); experiment: ADAM17 protease inhibitors, dose response, counter-screen for ADAM10 exosite inhibitor project, biochemical, quenched FRET substrate (AID 743253)
Sequence of Disintegrin and metalloproteinase domain-containing protein 17 (P78536 whole entry, the tested form may be a part): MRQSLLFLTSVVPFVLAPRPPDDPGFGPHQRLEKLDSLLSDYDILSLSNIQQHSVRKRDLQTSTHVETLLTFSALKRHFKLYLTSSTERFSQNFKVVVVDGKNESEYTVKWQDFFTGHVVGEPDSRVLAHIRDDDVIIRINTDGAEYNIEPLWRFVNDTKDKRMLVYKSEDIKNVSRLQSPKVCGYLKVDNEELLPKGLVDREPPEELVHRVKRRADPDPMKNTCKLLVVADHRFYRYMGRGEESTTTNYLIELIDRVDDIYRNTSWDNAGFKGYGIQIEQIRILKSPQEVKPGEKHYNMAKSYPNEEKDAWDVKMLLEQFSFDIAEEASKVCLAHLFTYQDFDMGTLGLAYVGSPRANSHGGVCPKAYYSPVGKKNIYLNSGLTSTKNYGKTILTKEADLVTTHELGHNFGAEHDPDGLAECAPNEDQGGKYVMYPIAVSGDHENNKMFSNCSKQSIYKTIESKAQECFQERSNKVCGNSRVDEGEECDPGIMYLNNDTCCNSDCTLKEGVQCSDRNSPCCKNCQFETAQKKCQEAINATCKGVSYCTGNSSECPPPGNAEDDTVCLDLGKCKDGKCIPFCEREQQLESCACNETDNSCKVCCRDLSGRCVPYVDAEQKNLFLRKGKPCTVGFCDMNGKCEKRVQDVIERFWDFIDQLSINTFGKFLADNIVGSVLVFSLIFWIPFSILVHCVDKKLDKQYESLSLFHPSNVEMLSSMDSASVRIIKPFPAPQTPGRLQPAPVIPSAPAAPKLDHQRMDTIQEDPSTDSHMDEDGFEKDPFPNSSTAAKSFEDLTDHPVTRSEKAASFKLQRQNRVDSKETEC

[19] = ADAM10 inhibitors, peptide cleavage, dose response, biochemical, QFRET (AID 743254);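 also: ADAM10 enzyme with the DM2 quenched FRET peptide as substrate; EDANS fluorescence gain as the protease cuts the substrate; inhibitor potency against ADAM10 proteolytic activity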
[20] = Luminescence Cell-Based Dose Confirmation HTS to Identify Inhibitors of Platelet Dense Granule Release. [Related pubchem assays: 1663 (Primary HTS), 1678 (Summary of Project)]; format: functional
[21] = target: Luciferin 4-monooxygenase (Photinus pyralis, UniProt P08659); experiment: firefly luciferase enzyme inhibitors, dose response, biochemical, luminescence (AID 1891)
Sequence of Luciferin 4-monooxygenase (P08659 whole entry): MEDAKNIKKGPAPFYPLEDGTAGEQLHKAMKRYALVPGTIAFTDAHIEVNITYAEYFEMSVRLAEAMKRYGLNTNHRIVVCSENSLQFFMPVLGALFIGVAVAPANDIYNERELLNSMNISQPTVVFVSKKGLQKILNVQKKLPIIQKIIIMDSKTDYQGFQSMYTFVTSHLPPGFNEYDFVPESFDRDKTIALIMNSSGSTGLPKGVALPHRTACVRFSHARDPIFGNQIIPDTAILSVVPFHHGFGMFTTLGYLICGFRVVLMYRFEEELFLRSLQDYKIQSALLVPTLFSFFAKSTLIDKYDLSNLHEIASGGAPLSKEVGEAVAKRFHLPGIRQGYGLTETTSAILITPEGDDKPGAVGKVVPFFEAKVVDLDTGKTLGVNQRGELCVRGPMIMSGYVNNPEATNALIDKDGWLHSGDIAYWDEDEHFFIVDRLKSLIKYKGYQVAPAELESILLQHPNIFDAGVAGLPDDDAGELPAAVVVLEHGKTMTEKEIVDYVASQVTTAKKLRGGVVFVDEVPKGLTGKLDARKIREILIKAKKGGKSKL

[22] = target: Protein Tat (Human immunodeficiency virus type 1 group M subtype B (isolate HXB2)(HIV-1), UniProt P04608); format: functional;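 also: tat binding to TAR RNA read out by fluorescence polarization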
Sequence of Protein Tat (P04608 whole entry): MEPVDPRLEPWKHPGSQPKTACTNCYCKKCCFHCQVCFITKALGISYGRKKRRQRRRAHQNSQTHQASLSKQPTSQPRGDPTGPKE

[23] = cells
[24] = target: T1, Oxysterols receptor LXR-beta; format: functional, cell-based; remark: listed apart in the source
[25] = target: Paired box protein Pax-8 (Homo sapiens, UniProt Q06710); experiment: inhibitors of PAX8-driven TPO luciferase reporter, dose response, RMG-I cells, cherry-pick (AID 687027); format: functional, cell-based;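 also: luciferase reporter driven by Pax8 target thyroperoxidase promoter measured by SteadyGlo luminescence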
Sequence of Paired box protein Pax-8 (Q06710 whole entry): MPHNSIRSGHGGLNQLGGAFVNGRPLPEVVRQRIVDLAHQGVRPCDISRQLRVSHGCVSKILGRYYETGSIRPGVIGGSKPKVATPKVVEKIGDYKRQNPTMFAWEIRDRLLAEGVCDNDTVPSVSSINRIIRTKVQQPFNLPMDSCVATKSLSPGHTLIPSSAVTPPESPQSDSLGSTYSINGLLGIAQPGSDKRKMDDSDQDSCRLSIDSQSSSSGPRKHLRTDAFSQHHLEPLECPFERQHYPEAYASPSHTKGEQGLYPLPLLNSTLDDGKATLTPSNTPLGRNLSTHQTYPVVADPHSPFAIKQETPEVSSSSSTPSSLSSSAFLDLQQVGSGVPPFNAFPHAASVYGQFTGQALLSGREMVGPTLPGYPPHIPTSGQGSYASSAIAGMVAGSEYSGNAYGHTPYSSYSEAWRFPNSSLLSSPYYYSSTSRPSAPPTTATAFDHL

[26] = NIH:OVCAR-3 ovarian cancer cell cytotoxicity, dose response, PAX8 inhibitor project, plate reader, dry powder samples (AID 743044); format: functional, cell-based
[27] = IGROV1 ovarian cancer cell cytotoxicity, dose response, PAX8 inhibitor project, plate reader, dry powder samples (AID 743043); format: functional, cell-based; details: IGROV-1
[28] = cytotoxicity toward HCT116 cells – cell-based, CellTiter-Glo luminescence, IC50, dose response (AID 1117332); format: functional; details: HCT-116
[29] = HeLa 2N DNA content increase, dose response, cell-based, IC50 (AID 1117349); format: functional
[30] = Concentration-dependent survival of SW480 colon cancer line, luminescence detection with CellTiter-Glo, half-maximal inhibitory concentration (AID 1117338); format: functional
[31] = HeLa 4N DNA content increase, dose response, cell-based, IC50 (AID 1117351); format: functional
[32] = CellTiter-Glo luminescent dose response of DLD-1 viability loss (AID 1117352); format: functional
[33] = RKO cell viability reduction, dose response, CellTiter-Glo luminescence (AID 1117322); format: functional
[34] = cytotoxicity toward HT-29 cells – cell-based, CellTiter-Glo luminescence, IC50, dose response (AID 1117330); format: functional
[35] = HCT116 cell viability decrease, GSK3B pretreatment – CellTiter-Glo, IC50, dose response (AID 1117339); format: functional; details: HCT-116
[36] = cytotoxicity toward Colo320 cells – cell-based, CellTiter-Glo luminescence, IC50, dose response (AID 1117334); format: functional; details: COLO 320
[37] = target: G-protein coupled receptor 183 (Homo sapiens, UniProt P32249); experiment: SAR confirmation of small molecule antagonists of the EBI2 receptor via a luminescent beta-arrestin assa.; format: functional
Sequence of G-protein coupled receptor 183 (P32249 whole entry): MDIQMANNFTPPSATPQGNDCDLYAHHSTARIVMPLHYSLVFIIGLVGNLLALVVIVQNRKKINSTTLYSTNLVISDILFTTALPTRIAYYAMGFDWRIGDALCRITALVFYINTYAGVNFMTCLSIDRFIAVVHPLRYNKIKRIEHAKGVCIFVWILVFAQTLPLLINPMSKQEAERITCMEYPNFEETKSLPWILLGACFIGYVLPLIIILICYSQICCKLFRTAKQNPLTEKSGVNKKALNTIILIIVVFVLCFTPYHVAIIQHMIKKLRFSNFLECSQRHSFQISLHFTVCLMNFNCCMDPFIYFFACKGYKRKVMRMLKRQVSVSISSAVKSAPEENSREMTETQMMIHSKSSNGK

[38] = P. falciparum Dd2 growth inhibitors, dose response, SYBR Green, dry powder samples, set 9 (AID 1159568); format: functional, cell-based

## CC(C)c1nc(SCC(=O)Nc2cccc(C(F)(F)F)c2)c2c(=O)n(C)c(=O)n(C)c2n1
[1]
  AC50: 2.54 µM (active)
[2]
  AC50: > 70 µM (inactive)
[3]
  AC50: 3.53 µM (active)
[4]
  AC50: 2.7 µM (active)
[5]
  AC50: 13.2 µM (active)

## CCCCC1CN2C(CCC(C)C2c2ccc(Br)cc2)C(=O)O1 (stereo unspecified)
[6]; human
  AC50: 3.16 µM (inconclusive)
[6]
  AC50: 3.16 µM (inconclusive)
[7]
  AC50: 3.16 µM (inconclusive) and 7.94 µM (inconclusive)

## CCOC(=O)C1C(c2ccccc2)N(C)OC1(O)C(F)(F)F (stereo unspecified)
[8]
  EC50: 9.58 µM (not active)

## COCCN1Cc2cc(O)n3c(nc4ccccc43)c2C1=N
[9]
  EC50: > 69.5 µM (inactive)

## CC1C=CCCOC1c1ccccc1 (stereo unspecified)
[7]
  AC50: 3.98 µM (inconclusive)

## CCOC(=O)c1cnn2c(C(F)(F)F)cc(-c3cn(C)nc3C)nc12
[9]
  EC50: 33.2 µM (inactive)

## COc1ccc(-n2c(-c3ccc(Br)cc3)nc(=S)c3c2CCCC3)cc1
[10]
  IC50: > 49.8 µM (not active)

## CCOC(=O)c1cnc(-n2nc(C)cc2C)nc1NC1CCCC1
[11]
  EC50: 2.69 µM (active)
[2]
  AC50: 8.6 µM (active)
[12]
  EC50: 5.64 µM (active)
[13]
  IC50: 7.91 µM (active)
[4]
  AC50: 4.4 µM (active)
[14]
  AC50: 2.73 µM (active)
[5]
  AC50: 7.1 µM (active)

## Cc1cc2nc(-c3cccnc3SCC(=O)NCc3ccco3)[nH]c2cc1C
[15]
  EC50: > 67.6 µM (inactive)

## Cc1cc(N)n(-c2ccc(Oc3ccccc3)c(S(=O)(=O)O)c2)n1
[16]
  AC50: > 100 µM (inactive)
[17]
  IC50: 123 µM (active)

## Cc1ccc(S(=O)(=O)N2CCC(=O)N2)cc1
[18]
  IC50: > 69.6 µM (inactive)
[19]
  IC50: > 69.6 µM (inactive)

## Cc1ccc(Nc2ncccc2C(N)=O)cc1[N+](=O)[O-]
[15]
  EC50: > 67.6 µM (inactive)

## O=C(NC1CCCC1)C(c1ccco1)N(Cc1ccccc1)C(=O)c1csnn1 (stereo unspecified)
[20]
  EC50: > 112 µM (not active)
[21]
  EC50: > 112 µM (not active)
[22]
  IC50: > 100 µM (active)

## CSc1ccc(C2NN=C(c3ccccc3)S2)cc1 (stereo unspecified)
[23]
  EC50: > 67.6 µM (inactive)
[24]
  EC50: > 67.6 µM (inactive)

## Cc1ccc(S(=O)(=O)Nc2ccc3c(c2)C(=O)N([C@H](C)CO)C[C@@H](C)[C@@H](CN(C)Cc2ccc(C(F)(F)F)cc2)OCCCC[C@H](C)O3)cc1
[25]
  AC50: 4.18 µM (active)
[26]
  AC50: 18.1 µM (active)
[27]
  AC50: 43.5 µM (active)

## COc1cc(NCc2ccc3nc(N)nc(N)c3c2C)cc(OC)c1OC
[28]
  IC50: 0.0231 µM (active)
[29]
  IC50: > 10 µM (inactive)
[30]
  IC50: 0.0591 µM (active)
[31]
  IC50: > 10 µM (inactive)
[32]
  IC50: 0.195 µM (active)
[33]
  IC50: 0.00272 µM (active)
[34]
  IC50: 0.0212 µM (active)
[35]
  IC50: 0.00392 µM (active)
[36]
  IC50: 0.386 µM (active)

## O=C(CSc1nnc(-c2cccs2)n1Cc1ccco1)Nc1ccc(Oc2ccccc2)cc1
[18]
  IC50: > 69.5 µM (inactive)
[19]
  IC50: > 69.5 µM (inactive)

## O=[N+]([O-])c1cccc(/N=C/C=C(\O)c2cccs2)c1
[23]
  EC50: > 67.5 µM (inactive)
[24]
  EC50: > 67.5 µM (inactive)

## O=C(/C=C/c1ccc(Cl)c(Cl)c1)N1CCN(Cc2ccc(Cl)cc2)CC1
[37]
  IC50: 0.0143 µM (active)

## CCc1csc(N2[C@H](CO)[C@H](c3ccccc3)[C@@H]2CNC)n1
[38]
  AC50: 7.33 µM (active)

## O=C(/C=C/c1cc(Br)ccc1F)N1CCN(S(=O)(=O)c2ccc(Br)cc2)CC1
[37]
  IC50: 0.743 µM (active)

## C[C@H](CO)N1C[C@H](C)[C@H](CN(C)S(=O)(=O)c2ccc(F)cc2)OCCCC[C@H](C)Oc2ccc(N(C)C)cc2C1=O
[38]
  AC50: 5.45 µM (active)
